pIC50: −log10 of the molar value.
Tests used:
[1] = test system: MCF7; experiment: Induction of apoptosis in human MCF7 cells assessed as late necrotic cells level at 4 uM incubated for 36 hrs by Annexin V-FITC/PI double staining based flow cytometry analysis (reference value: 6.88%); assay type: functional
[2] = test system: MCF7; experiment: Induction of apoptosis in human MCF7 cells assessed as late apoptotic cells level at 2 uM incubated for 24 hrs by Annexin V-FITC/PI double staining based flow cytometry analysis (reference value: 10.1%); assay type: functional
[3] = test system: MCF7; experiment: Inhibition of cell migration of human MCF7 cells at 4 uM by wound healing assay; assay type: functional, cell-based; conditions: TDE = time-dependent effect
[4] = test system: MCF7; experiment: Induction of apoptosis in human MCF7 cells assessed as viable cells level at 2 uM incubated for 24 hrs by Annexin V-FITC/PI double staining based flow cytometry analysis (reference value: 82%); assay type: functional
[5] = test system: HepG2; experiment: Antiproliferative activity against human HepG2 cells assessed as inhibition of cell proliferation incubated for 48 hrs by MTT assay; assay type: functional, cell-based; conditions: HepG2, 48 h
[6] = test system: MCF7; experiment: Induction of apoptosis in human MCF7 cells assessed as early apoptotic cells level at 4 uM incubated for 24 hrs by Annexin V-FITC/PI double staining based flow cytometry analysis (reference value: 1.06%); assay type: functional
[7] = test system: MCF7; experiment: Induction of apoptosis in human MCF7 cells assessed as late necrotic cells level at 4 uM incubated for 12 hrs by Annexin V-FITC/PI double staining based flow cytometry analysis (reference value: 6.88%); assay type: functional
[8] = test system: MCF7; experiment: Induction of apoptosis in human MCF7 cells assessed as early apoptotic cells level at 4 uM incubated for 12 hrs by Annexin V-FITC/PI double staining based flow cytometry analysis (reference value: 1.06%); assay type: functional
[9] = test system: MCF7; experiment: Induction of apoptosis in human MCF7 cells assessed as viable cells level at 8 uM incubated for 24 hrs by Annexin V-FITC/PI double staining based flow cytometry analysis (reference value: 82%); assay type: functional
[10] = test system: MCF7; experiment: Induction of apoptosis in human MCF7 cells assessed as late apoptotic cells level at 4 uM incubated for 24 hrs by Annexin V-FITC/PI double staining based flow cytometry analysis (reference value: 10.1%); assay type: functional

SMILES: Cc1ccc(-n2cc(NC(=O)c3cccc(NS(=O)(=O)c4ccc(Cl)cc4)c3)cn2)cc1
- Activity [1]: 1.03%
- Activity [2]: 17.7%
- inhibition [3]: Tde
- Activity [4]: 70.3%
- pIC50 [5]: 5.61
- Activity [6]: 21.6%
- Activity [7]: 0.349%
- Activity [8]: 22.7%
- Activity [9]: 41.4%
- Activity [10]: 21.4%

Source: ChEMBL document CHEMBL4385653, “Design, synthesis, biological evaluation of benzoyl amide derivatives containing nitrogen heterocyclic ring as potential VEGFR-2 inhibitors” (Bioorg Med Chem, 2019)
